The test system of one assay is A. baumannii biofilms. Nature of the assay: Static bacterial biofilm inhibition assay (crystal violet), A. baumannii. Type of assay: cell-based, Acinetobacter baumannii. Also noted: inhibition of A. baumannii biofilm development: dose or concentration left out as unconfirmed. Particulars: for IC50: read-out: IC50 of biofilm inhibition, A. baumannii. Here is the method:
(§1) Each 2-AIT conjugate was initially screened at 300 μM for their ability to inhibit P. aeruginosa PAO1 and PA14 biofilms, A. baumannii biofilms and B. bronchiseptica Rb50 biofilms using a crystal violet reporter assay (G. A. O'Toole, R. Kolter, Molecular Microbiology 1998, 2, 295-304). […] This is an order of magnitude increase in activity when compared to DHS (J. J. Richards, R. W. Huigens, T. E. Ballard, A. Basso, J. Cavanagh, C. Melander, Chemical Communications 2008, 14, 1698-1700). […] 6 also dispersed pre-formed A. baumanni biofilms with an EC50 of 400 μM (FIG. 2A).
(§2) General Static Bacterial Biofilm Inhibition Assay Procedure for A. baumannii, P. aeruginosa, B. bronchiseptica and S. aureus: Biofilm inhibition assays were performed by taking an overnight culture of bacterial strain and subculturing it at an OD600 of 0.01 into the necessary growth liquid medium (LB for A. baumannii, LBNS for P. aeruginosa, Stainer Scholte medium that was supplemented with […] of 100× nutrient complex for B. bronchiseptica and TSBG for S. aureus) for the strain. The compound being tested was then added at a predetermined concentration and then aliquoted (100 μL) into the wells of a 96-well PVC microtiter plate (Wells not used for samples are filled with 100 μL of de-ionized water). Plates were then wrapped in GLAD Press n′ Seal® and incubated under stationary conditions at 37° C. After 24 hours, the media was discarded from the wells and the plates were washed thoroughly with tap water. Plates were then stained with 100 μL of 0.1% solution of crystal violet (CV) and then incubated at an ambient temperature for 30 minutes. Sample plates were then washed with tap water again and the remaining stain was solubilized with 200 μl, of 95% ethanol. Biofilm inhibition was quantitated by measuring the OD540 for each well by transferring 125 μL of the solubilized CV stain into a polystyrene microtiter dish for analysis.

In a further assay the test system is MRSA. Kind of assay: Biofilm inhibition at 100 μM, MRSA. Type of assay: cell-based. As to conditions: Staphylococcus aureus, biofilm inhibition, 100 μM, read-out: MRSA % Inhibition. Here is the method:
Procedure to Determine the Inhibitory Effect of Test Compounds on E. faecium, MRSA, S. epidermidis, PAO1, PA14, E. Coli and MDRAB Biofilm Formation: Inhibition assays were performed by taking an overnight culture of bacterial strain and subculturing it at an OD600 of 0.01 into the necessary media (brain heart infusion for E. faecium, tryptic soy broth with a 0.5% glucose supplement (TSBG) for MRSA, Luria-Bertani (LB) media for MDRAB, Luria-Bertani media without NaCl (LBNS) for PAO1 and PA14, Luria-Bertani (LB) media for E. coli and tryptic soy broth with a 0.5% glucose supplement and a 3.0% NaCl supplement (TGN) for S. epidermidis. Stock solutions of predetermined concentrations of the test compound were then made in the necessary media. These stock solutions were aliquoted (100 μL) into the wells of the 96-well PVC microtiter plate. Sample plates were then wrapped in GLAD Press n′ Seal® followed by an incubation under stationary conditions for 24 h at 37° C. After incubation, the media was discarded from the wells and the plates were washed thoroughly with water. Plates were then stained with 100 μL of 0.1% solution of crystal violet (CV) and then incubated at ambient temperature for 30 min. Plates were washed with water again and the remaining stain was solubilized with 200 μL of 95% ethanol. A sample of 125 μL of solubilized CV stain from each well was transferred to the corresponding wells of a polystyrene microtiter dish. Biofilm inhibition was quantitated by measuring the OD540 of each well in which a negative control lane wherein no biofilm was formed served as a background and was subtracted out.
Biofilm inhibition has been tested for the following compounds, each of which was tested at a concentration of 100 μM.

Assay [1] concerns pre-formed S. aureus biofilms. Nature of the assay: Static bacterial biofilm dispersion assay, S. aureus. Type of assay: cell-based. Particulars: Staphylococcus aureus. Here is the method: (§3) General Static Bacterial Biofilm Dispersion Assay Procedure for A. baumannii, P. aeruginosa and S. aureus: Dispersion assays were performed by taking an overnight culture of bacterial strain and subculturing it at an OD600 of 0.01 into the necessary growth liquid medium. The resulting bacterial suspension was aliquoted (100 μL) into the wells of a 96-well PVC microtiter plate. Plates were then wrapped in GLAD Press n′ Seal® followed by an incubation under stationary conditions at an ambient temperature. After 24 hours, the media was discarded from the wells and the plates were washed thoroughly with tap water. Predetermined concentrations of the compound were then made in the same medium used to initially grow the biofilms and then aliquoted (100 μL) into the wells of the 96-well PVC microtiter plate with the established biofilms. Plates were then wrapped in GLAD Press n′ Seal® and incubated under stationary conditions at 37° C. After 24 hours, the media was discarded from the wells and the plates were washed thoroughly with tap water. Plates were then stained with 100 μL of 0.1% solution of crystal violet (CV) and then incubated at room temperature for 30 minutes. Plates were then washed with tap water again and the remaining stain was solubilized with 200 μL of 95% ethanol. Biofilm dispersion was quantitated by measuring the OD540 for each well by transferring 125 μL of the solubilized CV stain into a polystyrene microtiter dish for analysis.

For assay [2], the system named is B. bronchiseptica Rb50 biofilms. Kind of assay: Static bacterial biofilm inhibition assay (crystal violet), Rb50. Type of assay: cell-based. As to conditions: Bordetella bronchiseptica, RB50BIOFILMS
Here is the method: as §1, §2

Assay [3] has as its system A. baumannii, PAO1, PA14, Rb50, S. aureus (each bacterial strain). Nature of the assay: Planktonic growth curves and colony counts, each bacterial strain. Type of assay: cell-based. As to conditions: each bacterial strain grown in the presence of compound. Here is the method:
The OD600 was recorded at 1, 3, 4, 5, 6 and 24 hours.
General Colony Count Procedure for A. baumannii, P. aeruginosa, B. bronchiseptica and S. aeureus: Colony counts were performed by incubating either bacterial strain in the presence and absence of the test compound at 37° C. in culture tubes until the sample with the absence of the test compound reached an OD600 of 0.40 from a starting OD600 of 0.01. This typically took three to four hours. Once the OD600 of approximately 0.40 was observed, 100 μL were taken from each culture tube from which serial dilutions were made. Then, 10 μL were removed from each serial dilution and plated out on a square gridded petri-dish followed by 16 hours of incubation at 37° C. period (48 hours for B. bronchiseptica) to grow countable colonies. Viable bacteria were quantified through employment of the track-dilution method (Jett et al., Bio Techniques. 1997, 23, 648-650).

The subject of assay [4] is pre-formed B. bronchiseptica Rb50 biofilms. Kind of assay: Static bacterial biofilm dispersion assay, Rb50. Particulars: Bordetella bronchiseptica. Type of assay: cell-based. Here is the method:
as §3
General Static Bacterial Biofilm Dispersion Assay Procedure for B. bronchiseptica: This procedure is identical to the general dispersion procedure described above except that initial biofilm formation in the absence of the test compound was carried out at 37° C.

The test system of assay [5] is pre-formed P. aeruginosa PA14 biofilms. Nature of the assay: Static bacterial biofilm dispersion assay, PA14. Particulars: Pseudomonas aeruginosa. Type of assay: cell-based. Here is the method:
as §3

The test system of assay [6] is pre-formed A. baumannii biofilms. Nature of the assay: Static bacterial biofilm dispersion assay, A. baumannii. As to conditions: Acinetobacter baumannii. Type of assay: cell-based. Here is the method: as §3
For assay [7], the system named is P. aeruginosa PAO1 biofilms. Nature of the assay: Static bacterial biofilm inhibition assay (crystal violet), PAO1. The assay is classed as cell-based. As to conditions: Pseudomonas aeruginosa. Here is the method:
as §1, §2

The test system of assay [8] is pre-formed P. aeruginosa PAO1 biofilms. Nature of the assay: Static bacterial biofilm dispersion assay, PAO1. The assay is classed as cell-based. Particulars: Pseudomonas aeruginosa. Here is the method: as §3
The subject of assay [9] is Staphylococcus aureus biofilm. Nature of the assay: Static bacterial biofilm inhibition assay (crystal violet), S. aureus. Type of assay: cell-based. Here is the method: as §2
Assay [10] deals with P. aeruginosa PA14 biofilms. Kind of assay: Static bacterial biofilm inhibition assay (crystal violet), PA14. The assay is classed as cell-based. Particulars: Pseudomonas aeruginosa; P. aeruginosa PA14. Here is the method:
as §1, §2

Each structure is given as a SMILES string. Where a name gives a salt, the structure may show the parent alone.

On to `C/C(=C\c1ccccc1)Cn1cc(CCCn2ccnn2)nn1` [Compound 9, 1-(2-Methyl-3-phenyl-allyl)-4-(3-[1,2,3]triazol-1-yl-propyl)-1H-[1,2,3]triazole], for which the inhibition at 800 µM in the assay on A. baumannii biofilms (Acinetobacter baumannii, at the highest concentration studied (800 μM), read-out: inhibition of A. baumannii biofilm development) was under 30%.

In the case of `Nc1nc(CCCc2cn(CC(=O)NC3CCCCC3)nn2)c[nH]1` [2-{4-[3-(2-amino-1H-imidazol-4-yl)-propyl]-[1,2,3]triazol-1-yl}-N-cyclohexyl-acetamide hydrochloride], the inhibition at 100 µM in the assay with MRSA came to 40.5 ± 4%.

For `CCCCCCNC(=O)Cn1cc(CCCc2c[nH]c(N)n2)nn1` [2-{4-[3-(2-amino-1H-imidazol-4-yl)-propyl]-[1,2,3]triazol-1-yl}-N-hexyl-acetamide hydrochloride], in the assay on MRSA, the inhibition at 100 µM came to 83.1 ± 16%.

For `Nc1ncc[nH]1` [2-Aminomidazole, reference compound], in the assay with A. baumannii biofilms (up to 800 μM (highest concentration tested)), the “activity against A. baumannii biofilm development” value is reported as “devoid of activity”.

In the case of `COc1ccc(CNC(=O)Cn2cc(CCCc3c[nH]c(N)n3)nn2)cc1` [2-{4-[3-(2-amino-1H-imidazol-4-yl)-propyl]-[1,2,3]triazol-1-yl}-N-(4-methoxy-benzyl)-acetamide hydrochloride], in the assay on MRSA, the inhibition at 100 µM was determined as 71 ± 3%.

As for `C/C(=C\c1ccccc1)Cn1cc(Cc2c[nH]c(N)n2)nn1` [Compound 8, 4-[1-(2-Methyl-3-phenyl-allyl)-1H [1,2,3]triazol-4-ylmethyl]-1H-imidazol-2-ylamine hydrochloride], the “inhibition of A. baumannii biofilm development” value in the assay with A. baumannii biofilms ((highest concentration tested)) is reported as under 50%.

Consider `COc1ccc(NC(=O)Cn2cc(CCCc3c[nH]c(N)n3)nn2)cc1` [2-{4-[3-(2-amino-1H-imidazol-4-yl)-propyl]-[1,2,3]triazol-1-yl}-N-(4-methoxy-phenyl)-acetamide hydrochloride], for which, in the assay with MRSA, the inhibition at 100 µM turned out to be 41.1 ± 2%.

With `Nc1nc(CCCc2cn(CC(=O)Nc3ccccc3)nn2)c[nH]1` [2-{4-[3-(2-amino-1H-imidazol-4-yl)-propyl]-[1,2,3]triazol-1-yl}-N-phenyl-acetamide hydrochloride], the inhibition at 100 µM in the assay with MRSA worked out at 41.9 ± 2%.

In the case of `C/C(=C\c1ccccc1)Cn1cc(CCCCCCc2c[nH]c(N)n2)nn1` [Compound 12, 4-{6-[1-(2-Methyl-3-phenyl-allyl)-1H-[1,2,3]triazol-4-yl]-hexyl}-1H-imidazol-2-ylamine hydrochloride], the EC50 in [1] came out at 37 µM; in [4] it was 75 µM; in [5], 48 µM; in assay [6] it was 36 µM; in assay [8] it was 51 µM. For the same molecule, the IC50 in assay [2] is 70 µM; in [7] it was 2.7 µM; in assay [9] it was 4.6 µM; with A. baumannii biofilms (Acinetobacter baumannii) it was 6.8 µM; in assay [10], 22 µM. In addition, the “bactericidal / microbicidal activity (colony counts and growth curves)” value in assay [3] is recorded as “not due to microbicidal activity”.

As for `CC(C)(C)NC(=O)Cn1cc(CCCc2c[nH]c(N)n2)nn1` [2-{4-[3-(2-amino-1H-imidazol-4-yl)-propyl]-[1,2,3]triazol-1-yl}-N-tert-butyl-acetamide hydrochloride], the inhibition at 100 µM in the assay with MRSA was determined as 28.2 ± 15%.

Consider `Nc1nc(CCCc2cn(CC(=O)N3CCCC3)nn2)c[nH]1` [2-{4-[3-(2-amino-1H-imidazol-4-yl)-propyl]-[1,2,3]triazol-1-yl}-1-pyrrolidin-1-yl-ethanone hydrochloride], for which the inhibition at 100 µM in the assay with MRSA is 35.4 ± 5%.

Take `COc1ccc(CCNC(=O)Cn2cc(CCCc3c[nH]c(N)n3)nn2)cc1` [2-{4-[3-(2-amino-1H-imidazol-4-yl)-propyl]-[1,2,3]triazol-1-yl}-N-[2-(4-methoxy-phenyl)-ethyl]-acetamide hydrochloride]: the inhibition at 100 µM in the assay with MRSA amounted to 18.3 ± 5%.

As for `Nc1nc(CCCc2cn(CC(=O)NCc3ccccc3)nn2)c[nH]1` [2-{4-[3-(2-amino-1H-imidazol-4-yl)-propyl]-[1,2,3]triazol-1-yl}-N-benzyl-acetamide hydrochloride], the inhibition at 100 µM in the assay on MRSA came out at 58.1 ± 2%.

Turning to `CC(C)NC(=O)Cn1cc(CCCc2c[nH]c(N)n2)nn1` [2-{4-[3-(2-amino-1H-imidazol-4-yl)-propyl]-[1,2,3]triazol-1-yl}-N-isopropyl-acetamide hydrochloride], the inhibition at 100 µM with MRSA is 36.4 ± 3%.

For `Nc1nc(CCCc2cn(CC(=O)NC3CCCC3)nn2)c[nH]1` [2-{4-[3-(2-amino-1H-imidazol-4-yl)-propyl]-[1,2,3]triazol-1-yl}-N-cyclopentyl-acetamide hydrochloride], the inhibition at 100 µM in the assay on MRSA amounted to 64 ± 4%.

In the case of `C/C(=C\c1ccccc1)Cn1cc(CCc2c[nH]c(N)n2)nn1` [Compound 7, 4-{2-[1-(2-Methyl-3-phenyl-allyl)-1H-[1,2,3]triazol-4-yl]-ethyl}-1H-imidazol-2-ylamine hydrochloride], the IC50 in the assay with A. baumannii biofilms (Acinetobacter baumannii) came out at 220 µM.

On to `Nc1nc(CCCc2cn(CC(=O)NCCCc3ccccc3)nn2)c[nH]1` [2-{4-[3-(2-amino-1H-imidazol-4-yl)-propyl]-[1,2,3]triazol-1-yl}-N-(3-phenyl-propyl)-acetamide hydrochloride], for which the inhibition at 100 µM with MRSA is 64.8 ± 2%.
